# The supplement of paper PMC10307832
# Columns and labels:
# Assay in all cases: relative viability (nuclei count vs DMSO), 5 days (fraction); higher = more cells survive
# A-427 = tested on: A-427
# Method in brief: (§1)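 The day after seeding in 1536-well plates, lung cancer cell lines were treated by pin tool with a single drug, or with a fixed anchor-drug dose together with five library-drug doses (not always all listed) in √10 steps. After 5 days, a combined fix-and-stain solution (final 0.05% Triton X-100, 1% formaldehyde, 1 ug/ml Hoechst) was added. Nuclei counted on 4× images gave relative viability as treated counts over vehicle counts, reported as the median of duplicate plates.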
# HCC-366 = tested on: HCC-366
# Method in brief: as §1
# HCC-827 = tested on: HCC-827
# Method in brief: as §1
# LC-2-ad = tested on: LC-2-ad
# Method in brief: as §1
# LCLC-103H = tested on: LCLC-103H
# Method in brief: as §1
# NCI-H1355 = tested on: NCI-H1355
# Method in brief: as §1
# NCI-H1734 = tested on: NCI-H1734
# Method in brief: as §1
# NCI-H1755 = tested on: NCI-H1755
# Method in brief: as §1
# NCI-H1915 = tested on: NCI-H1915
# Method in brief: as §1
# NCI-H1975 = tested on: NCI-H1975
# Method in brief: as §1
# NCI-H1993 = tested on: NCI-H1993
# Method in brief: as §1
# NCI-H2170 = tested on: NCI-H2170
# Method in brief: as §1
# NCI-H2228 = tested on: NCI-H2228
# Method in brief: as §1
# NCI-H2342 = tested on: NCI-H2342
# Method in brief: as §1
# NCI-H2347 = tested on: NCI-H2347
# Method in brief: as §1
# NCI-H23 = tested on: NCI-H23
# Method in brief: as §1
# NCI-H650 = tested on: NCI-H650
# Method in brief: as §1
# RERF-LC-KJ = tested on: RERF-LC-KJ
# Method in brief: as §1
# SK-LU-1 = tested on: SK-LU-1
# Method in brief: as §1
# SK-MES-1 = tested on: SK-MES-1
# Method in brief: as §1
# SW 1573 = tested on: SW 1573
# Method in brief: as §1
# UMC-11 = tested on: UMC-11
# Method in brief: as §1
smiles,measurement,setting,value
CCNC(=O)c1noc(-c2cc(C(C)C)c(O)cc2O)c1-c1ccc(CN2CCOCC2)cc1 [Luminespib] + Cc1cc(Nc2cc(N3CCN(C)CC3)nc(Sc3ccc(NC(=O)C4CC4)cc3)n2)n[nH]1 [Tozasertib] (partner 0.1 µM),relative viability,A-427; first compound 0.002 µM,0.218
same,relative viability,A-427; first compound 0.006325 µM,0.204
same,relative viability,A-427; first compound 0.02 µM,0.151
same,relative viability,A-427; first compound 0.06325 µM,0.226
same,relative viability,A-427; first compound 0.2 µM,0.134
same,relative viability,HCC-366; first compound 0.002 µM,0.13
same,relative viability,HCC-366; first compound 0.006325 µM,0.105
same,relative viability,HCC-366; first compound 0.02 µM,0.108
same,relative viability,HCC-366; first compound 0.06325 µM,0.228
same,relative viability,HCC-366; first compound 0.2 µM,0.0502
same,relative viability,HCC-827; first compound 0.002 µM,0.425
same,relative viability,HCC-827; first compound 0.006325 µM,0.465
same,relative viability,HCC-827; first compound 0.02 µM,0.398
same,relative viability,HCC-827; first compound 0.06325 µM,0.41
same,relative viability,HCC-827; first compound 0.2 µM,0.193
same,relative viability,LC-2-ad; first compound 0.002 µM,0.482
same,relative viability,LC-2-ad; first compound 0.006325 µM,0.493
same,relative viability,LC-2-ad; first compound 0.02 µM,0.414
same,relative viability,LC-2-ad; first compound 0.06325 µM,0.258
same,relative viability,LC-2-ad; first compound 0.2 µM,0.251
same,relative viability,LCLC-103H; first compound 0.002 µM,0.47
same,relative viability,LCLC-103H; first compound 0.006325 µM,0.455
same,relative viability,LCLC-103H; first compound 0.02 µM,0.44
same,relative viability,LCLC-103H; first compound 0.06325 µM,0.497
same,relative viability,LCLC-103H; first compound 0.2 µM,0.308
same,relative viability,NCI-H1355; first compound 0.002 µM,0.518
same,relative viability,NCI-H1355; first compound 0.006325 µM,0.577
same,relative viability,NCI-H1355; first compound 0.02 µM,0.421
same,relative viability,NCI-H1355; first compound 0.06325 µM,0.618
same,relative viability,NCI-H1355; first compound 0.2 µM,0.226
same,relative viability,NCI-H1734; first compound 0.002 µM,0.248
same,relative viability,NCI-H1734; first compound 0.006325 µM,0.254
same,relative viability,NCI-H1734; first compound 0.02 µM,0.252
same,relative viability,NCI-H1734; first compound 0.06325 µM,0.143
same,relative viability,NCI-H1734; first compound 0.2 µM,0.154
same,relative viability,NCI-H1755; first compound 0.002 µM,0.585
same,relative viability,NCI-H1755; first compound 0.006325 µM,0.592
same,relative viability,NCI-H1755; first compound 0.02 µM,0.646
same,relative viability,NCI-H1755; first compound 0.06325 µM,0.214
same,relative viability,NCI-H1755; first compound 0.2 µM,0.192
same,relative viability,NCI-H1915; first compound 0.002 µM,0.449
same,relative viability,NCI-H1915; first compound 0.006325 µM,0.518
same,relative viability,NCI-H1915; first compound 0.02 µM,0.377
same,relative viability,NCI-H1915; first compound 0.06325 µM,0.364
same,relative viability,NCI-H1915; first compound 0.2 µM,0.187
same,relative viability,NCI-H1975; first compound 0.002 µM,0.759
same,relative viability,NCI-H1975; first compound 0.006325 µM,0.745
same,relative viability,NCI-H1975; first compound 0.02 µM,0.603
same,relative viability,NCI-H1975; first compound 0.06325 µM,0.1
same,relative viability,NCI-H1975; first compound 0.2 µM,0.093
same,relative viability,NCI-H1993; first compound 0.002 µM,0.539
same,relative viability,NCI-H1993; first compound 0.006325 µM,0.6
same,relative viability,NCI-H1993; first compound 0.02 µM,0.533
same,relative viability,NCI-H1993; first compound 0.06325 µM,0.5
same,relative viability,NCI-H1993; first compound 0.2 µM,0.437
same,relative viability,NCI-H2170; first compound 0.002 µM,0.72
same,relative viability,NCI-H2170; first compound 0.006325 µM,0.737
same,relative viability,NCI-H2170; first compound 0.02 µM,0.398
same,relative viability,NCI-H2170; first compound 0.06325 µM,0.299
same,relative viability,NCI-H2170; first compound 0.2 µM,0.158
same,relative viability,NCI-H2228; first compound 0.002 µM,0.353
same,relative viability,NCI-H2228; first compound 0.006325 µM,0.274
same,relative viability,NCI-H2228; first compound 0.02 µM,0.139
same,relative viability,NCI-H2228; first compound 0.06325 µM,0.101
same,relative viability,NCI-H2228; first compound 0.2 µM,0.136
same,relative viability,NCI-H2342; first compound 0.002 µM,0.578
same,relative viability,NCI-H2342; first compound 0.006325 µM,0.576
same,relative viability,NCI-H2342; first compound 0.02 µM,0.361
same,relative viability,NCI-H2342; first compound 0.06325 µM,0.589
same,relative viability,NCI-H2342; first compound 0.2 µM,0.334
same,relative viability,NCI-H2347; first compound 0.002 µM,0.592
same,relative viability,NCI-H2347; first compound 0.006325 µM,0.407
same,relative viability,NCI-H2347; first compound 0.02 µM,0.471
same,relative viability,NCI-H2347; first compound 0.06325 µM,0.269
same,relative viability,NCI-H2347; first compound 0.2 µM,0.198
same,relative viability,NCI-H23; first compound 0.002 µM,0.333
same,relative viability,NCI-H23; first compound 0.006325 µM,0.351
same,relative viability,NCI-H23; first compound 0.02 µM,0.345
same,relative viability,NCI-H23; first compound 0.06325 µM,0.279
same,relative viability,NCI-H23; first compound 0.2 µM,0.229
same,relative viability,NCI-H650; first compound 0.002 µM,0.805
same,relative viability,NCI-H650; first compound 0.006325 µM,0.695
same,relative viability,NCI-H650; first compound 0.02 µM,0.516
same,relative viability,NCI-H650; first compound 0.06325 µM,0.199
same,relative viability,NCI-H650; first compound 0.2 µM,0.0951
same,relative viability,RERF-LC-KJ; first compound 0.002 µM,0.558
same,relative viability,RERF-LC-KJ; first compound 0.006325 µM,0.501
same,relative viability,RERF-LC-KJ; first compound 0.02 µM,0.518
same,relative viability,RERF-LC-KJ; first compound 0.06325 µM,0.211
same,relative viability,RERF-LC-KJ; first compound 0.2 µM,0.208
same,relative viability,SK-LU-1; first compound 0.002 µM,0.373
same,relative viability,SK-LU-1; first compound 0.006325 µM,0.313
same,relative viability,SK-LU-1; first compound 0.02 µM,0.292
same,relative viability,SK-LU-1; first compound 0.06325 µM,0.122
same,relative viability,SK-LU-1; first compound 0.2 µM,0.114
same,relative viability,SK-MES-1; first compound 0.002 µM,0.822
same,relative viability,SK-MES-1; first compound 0.006325 µM,0.849
same,relative viability,SK-MES-1; first compound 0.02 µM,1.01
same,relative viability,SK-MES-1; first compound 0.06325 µM,0.144
same,relative viability,SK-MES-1; first compound 0.2 µM,0.159
same,relative viability,SW 1573; first compound 0.002 µM,0.199
same,relative viability,SW 1573; first compound 0.006325 µM,0.175
same,relative viability,SW 1573; first compound 0.02 µM,0.173
same,relative viability,SW 1573; first compound 0.06325 µM,0.113
same,relative viability,SW 1573; first compound 0.2 µM,0.0892
same,relative viability,UMC-11; first compound 0.002 µM,0.211
same,relative viability,UMC-11; first compound 0.006325 µM,0.191
same,relative viability,UMC-11; first compound 0.02 µM,0.194
same,relative viability,UMC-11; first compound 0.06325 µM,0.242
same,relative viability,UMC-11; first compound 0.2 µM,0.196
